pIC50: −log10 of the molar value.
Tested on: 377384-186-R-J1-PDC complex spheroid viability
Test: Anticancer human tumor 377384-186-R-J1-PDC patient-derived pancreatic carcinoma cell line growth inhibition [RAS]
Details: for pIC50: curve of first compound; for viability, T/C: stronger effect = lower value
Procedure, shortened: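 Tumour cells grown as complex spheroids with HUVEC endothelial cells and mesenchymal stem cells, treated with RAS pathway inhibitor combinations. Each agent spans half-log steps from near clinical Cmax, or 10 microM where Cmax is unknown.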

[1] = second compound 0.000949 µM, first compound 0.0316 µM
[2] = second compound 0.000949 µM, first compound 0.1 µM
[3] = second compound 0.000949 µM, first compound 0.316 µM
[4] = second compound 0.000949 µM, first compound 1 µM
[5] = second compound 0.003 µM, first compound 0.0316 µM
[6] = second compound 0.003 µM, first compound 0.1 µM
[7] = second compound 0.003 µM, first compound 0.316 µM
[8] = second compound 0.003 µM, first compound 1 µM
[9] = second compound 0.00949 µM, first compound 0.0316 µM
[10] = second compound 0.00949 µM, first compound 0.1 µM
[11] = second compound 0.00949 µM, first compound 0.316 µM
[12] = second compound 0.00949 µM, first compound 1 µM
[13] = second compound 0.03 µM, first compound 0.0316 µM
[14] = second compound 0.03 µM, first compound 0.1 µM
[15] = second compound 0.03 µM, first compound 0.316 µM
[16] = second compound 0.03 µM, first compound 1 µM
[17] = second compound 0.0949 µM, first compound 0.0316 µM
[18] = second compound 0.0949 µM, first compound 0.1 µM
[19] = second compound 0.0949 µM, first compound 0.316 µM
[20] = second compound 0.0949 µM, first compound 1 µM
[21] = second compound 0.3 µM, first compound 0.0316 µM
[22] = second compound 0.3 µM, first compound 0.1 µM
[23] = second compound 0.3 µM, first compound 0.316 µM
[24] = second compound 0.3 µM, first compound 1 µM
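Note: spheroids exposed to compounds for seven days before readout.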

For `NC1c2ccccc2OC12CCN(c1cnc3c(N4CCCc5ncccc54)n[nH]c3n1)CC2` (centres undefined) + CCn1c(-c2cc(N3CCN(C)CC3)cnc2C(C)OC)c2c3cc(ccc31)-c1csc(n1)CC(NC(=O)C1CC1C)C(=O)N1CCCC(N1)C(=O)OCC(C)(C)C2, the pIC50 (second compound 0.000949 µM) was > 7.50, the pIC50 (second compound 0.003 µM) was > 7.50 and the pIC50 (second compound 0.00949 µM) was > 7.50. For the same compound, the pIC50 (second compound 0.03 µM) was > 7.50, the pIC50 (second compound 0.0949 µM) was > 7.50 and the pIC50 (second compound 0.3 µM) was > 7.50. It also gave a viability, T/C [1] of 5.69%, a viability, T/C [2] of 3.23% and a viability, T/C [3] of 1.88%. For the same compound, the viability, T/C [4] was 1.71%, the viability, T/C (second compound 0.000949 µM, first compound 3.16 µM) was 1.35% and the viability, T/C (second compound 0.000949 µM, first compound 10 µM) was 0.78%. It also gave a viability, T/C [5] of 2.74%, a viability, T/C [6] of 1.37% and a viability, T/C [7] of 1.06%. It also gave a viability, T/C [8] of 0.67%, a viability, T/C (second compound 0.003 µM, first compound 3.16 µM) of 0.28% and a viability, T/C (second compound 0.003 µM, first compound 10 µM) of 0.2%. For the same compound, the viability, T/C [9] was 1.78%, the viability, T/C [10] was 1.22% and the viability, T/C [11] was 0.77%. For the same compound, the viability, T/C [12] was 0.41%, the viability, T/C (second compound 0.00949 µM, first compound 3.16 µM) was 1.43% and the viability, T/C (second compound 0.00949 µM, first compound 10 µM) was 0.08%. It also gave a viability, T/C [13] of 2.14%, a viability, T/C [14] of 1.39% and a viability, T/C [15] of 1%. For the same compound, the viability, T/C [16] was 0.36%, the viability, T/C (second compound 0.03 µM, first compound 3.16 µM) was 0.18% and the viability, T/C (second compound 0.03 µM, first compound 10 µM) was 0.1%. It also gave a viability, T/C [17] of 1.61%, a viability, T/C [18] of 1.57% and a viability, T/C [19] of 0.67%. For the same compound, the viability, T/C [20] was 0.17%, the viability, T/C (second compound 0.0949 µM, first compound 3.16 µM) was 0.13% and the viability, T/C (second compound 0.0949 µM, first compound 10 µM) was 0.29%. It also gave a viability, T/C [21] of 1.41%, a viability, T/C [22] of 1.04% and a viability, T/C [23] of 0.5%. The viability, T/C [24] was 0.27%, the viability, T/C (second compound 0.3 µM, first compound 3.16 µM) was 0.14% and the viability, T/C (second compound 0.3 µM, first compound 10 µM) was 0.1%.

With `Nc1ccn(C2OC(CO)C(O)C2(F)F)c(=O)n1` (centres undefined) + CCn1c(-c2cc(N3CCN(C)CC3)cnc2C(C)OC)c2c3cc(ccc31)-c1csc(n1)CC(NC(=O)C1CC1C)C(=O)N1CCCC(N1)C(=O)OCC(C)(C)C2 the pIC50 (second compound 0.000949 µM) was > 8.50, the pIC50 (second compound 0.003 µM) was > 8.50 and the pIC50 (second compound 0.00949 µM) was > 8.50. For the same compound, the pIC50 (second compound 0.03 µM) was > 8.50, the pIC50 (second compound 0.0949 µM) was > 8.50 and the pIC50 (second compound 0.3 µM) was > 8.50. For the same compound, the viability, T/C (second compound 0.000949 µM, first compound 0.00316 µM) was 41.1%, the viability, T/C (second compound 0.000949 µM, first compound 0.01 µM) was 18.4% and the viability, T/C [1] was 4.12%. The viability, T/C [2] was 3.96%, the viability, T/C [3] was 3.39% and the viability, T/C [4] was 3.44%. For the same compound, the viability, T/C (second compound 0.003 µM, first compound 0.00316 µM) was 19%, the viability, T/C (second compound 0.003 µM, first compound 0.01 µM) was 8.01% and the viability, T/C [5] was 5.2%. The viability, T/C [6] was 2.62%, the viability, T/C [7] was 3.06% and the viability, T/C [8] was 2.55%. It also gave a viability, T/C (second compound 0.00949 µM, first compound 0.00316 µM) of 4.2%, a viability, T/C (second compound 0.00949 µM, first compound 0.01 µM) of 3.81% and a viability, T/C [9] of 3.02%. The viability, T/C [10] was 2.45%, the viability, T/C [11] was 2.8% and the viability, T/C [12] was 2.63%. It also gave a viability, T/C (second compound 0.03 µM, first compound 0.00316 µM) of 2.29%, a viability, T/C (second compound 0.03 µM, first compound 0.01 µM) of 3.33% and a viability, T/C [13] of 2.15%. The viability, T/C [14] was 2.11%, the viability, T/C [15] was 3.23% and the viability, T/C [16] was 2.21%. For the same compound, the viability, T/C (second compound 0.0949 µM, first compound 0.00316 µM) was 2.1%, the viability, T/C (second compound 0.0949 µM, first compound 0.01 µM) was 2.03% and the viability, T/C [17] was 1.97%. It also gave a viability, T/C [18] of 1.8%, a viability, T/C [19] of 1.92% and a viability, T/C [20] of 1.8%. For the same compound, the viability, T/C (second compound 0.3 µM, first compound 0.00316 µM) was 1.98%, the viability, T/C (second compound 0.3 µM, first compound 0.01 µM) was 2.16% and the viability, T/C [21] was 1.73%. For the same compound, the viability, T/C [22] was 1.47%, the viability, T/C [23] was 1.95% and the viability, T/C [24] was 2.17%.

— PubChem BioAssay AID2060903 (Molecular Pharmacology Branch, DTP, NCI, 2025)
